These results are taken from paper PMC7663772, “Optimizing the Profile of [^99mTc]Tc–NT(7–13) Tracers in Pancreatic Cancer Models by Means of Protease Inhibitors” (International Journal of Molecular Sciences, 2020).

Series [1] has as its system AsPC-1 xenografts. The settings on record: mouse, in vivo; cited from earlier work.
Series [2] relates to AsPC-1 cells. The series can be described thus: NTS1R-specific cell uptake/internalization in AsPC-1 cells. In kind it is cell-based, human. The conditions noted are these: for specific cell uptake: AsPC-1 cells, 1 h incubation at 37 °C, NTS1R-specific (non-specific with 1 μM NT subtracted). How it is done: (§1) The human pancreatic adenocarcinoma AsPC-1, PANC-1, MiaCapa-2, and Capan-1 cell lines were obtained from LGC Standards GmbH (Wesel, Germany). All culture reagents were purchased from Gibco BRL, Life Technologies (Grand Island, NY, USA) or from Biochrom KG Seromed (Berlin, Germany). Cells were grown in Roswell Park Memorial Institute-1640 Medium (RPMI-1640; AsPC-1 cells) or Dulbecco’s Modified Eagle’s Medium (DMEM; PANC-1, MiaCapa-2, and Capan-1 cells) with GlutaMAX-I, supplemented with 10% (v/v) fetal bovine serum (FBS), 100 U/mL penicillin, and 100 μg/mL streptomycin, and kept in a controlled humidified air containing 5% CO2 at 37 °C. Splitting of cells with a ratio of 1:3 to 1:5 was performed when approaching confluency, using a trypsin/EDTA (0.05%/0.02% w/v) solution.
For internalization assays, AsPC-1, PANC-1, MiaCapa-2, and Capan-1 cells were seeded in six-well plates (≈1 × 10^6 cells per well) the day before the experiment. Cells were rinsed twice with ice-cold internalization medium (IM; culture medium supplemented by 1% (v/v) FBS), and then fresh IM was added (1.2 mL) at 37 °C, followed by test radiopeptide (250 fmol total peptide in 150 μL IPBS (0.5% w/v BSA–PBS,) 100,000–200,000 cpm). Non-specific internalization was determined by a parallel triplicate series containing 1 μM NT. After incubation at 37 °C, the plates were placed on ice, the medium was collected, and the plates were washed with IPBS (1 mL). Membrane-bound fractions were collected by incubating the cells 2 × 5 min in acid-wash solution (2 × 600 µL; 50 mM glycine buffer pH 2.8, 0.1 M NaCl) at room temperature. […] Sample radioactivity was measured on the gamma counter, and the percentage of specific internalized and membrane-bound fractions were calculated with Microsoft Excel (after subtracting the non-specific from the overall internalized and membrane-bound counts). Results represent the specific mean internalized ± SD of total added radioactivity per well from three experiments performed in triplicate. […]

Series [3] concerns MiaCapa-2 cells. The series can be described thus: NTS1R-specific cell uptake/internalization in MiaCapa-2 cells. The conditions noted are these: 1 h incubation at 37 °C. Format: cell-based, human. How it is done:
as §1, with “Splitting of cells with a ratio of 1:3 to 1:5 was performed when approaching confluency, using a trypsin/EDTA (0.05%/0.02% w/v) solution.” left out
(§2) For internalization assays, AsPC-1, PANC-1, MiaCapa-2, and Capan-1 cells were seeded in six-well plates (≈1 × 10^6 cells per well) the day before the experiment. […] Non-specific internalization was determined by a parallel triplicate series containing 1 μM NT. […] Sample radioactivity was measured on the gamma counter, and the percentage of specific internalized and membrane-bound fractions were calculated with Microsoft Excel (after subtracting the non-specific from the overall internalized and membrane-bound counts). Results represent the specific mean internalized ± SD of total added radioactivity per well from three experiments performed in triplicate. […]

For series [4], the system named is Capan-1 cells. The series can be described thus: NTS1R-specific cell uptake/internalization in Capan-1 cells. Format: cell-based, human. The conditions noted are these: 1 h incubation at 37 °C. On the procedure: as §1, with “Splitting of cells with a ratio of 1:3 to 1:5 was performed when approaching confluency, using a trypsin/EDTA (0.05%/0.02% w/v) solution.” left out
as §2

For series [5], the system named is WiDr cells. On the set-up: method as in PMID 32526874. The settings on record: 1 h incubation ref 39; cited from earlier work.
Series [6] deals with PANC-1 cells. The series can be described thus: NTS1R-specific cell uptake/internalization in PANC-1 cells. In kind it is cell-based, human. How it is done: as §1, with “Splitting of cells with a ratio of 1:3 to 1:5 was performed when approaching confluency, using a trypsin/EDTA (0.05%/0.02% w/v) solution.” left out
as §2

Series [7] deals with NTS1R. Further details: method as in PMID 17594090. The conditions noted are these: read-out: receptor affinity (IC50); cited from earlier work.
Series [8] relates to NTS1R. On the set-up: method as in PMID 21883013. The settings on record: small number of patients ref 30; cited from earlier work.
For series [9] the following is noted: mouse, 2 h; cited from earlier work.
The conditions of series [10]: mouse, in vivo; cited from earlier work.

Broadly, the IC50 is the concentration needed to halve the response being measured.

Turning to “Ac–Lys(1,4,7,10-tetraazacyclododecane–1,4,7,10-tetraacetic acid)–Pro–Me–Arg–Arg–Pro–Tyr–Tle–Leu–OH [[^68Ga]Ga–DOTA–NT–20.3]”, the kidney values result in series [1] is listed as “about the same values”.

Take “[^68Ga]Ga–NODAGA–Lys(Cy5**)–AEEAc–[Me–Arg^8,Tle^12]NT(7−13)”: the kidney values in series [1] is 20 % IA/g.

On to “[^99mTc]Tc–[N4–Gly^7]NT(7–13) [[^99mTc]Tc–DT1]”, for which the “I, internalized fraction, specific” value in series [2] (AsPC-1, 1 h incubation, of total-added activity) stood at 14.11±2.28; in [6] (PANC-1, 1 h incubation, of total-added activity) it was 7.30±2.41. Further, the specific cell uptake in series [2] is listed as 15.2% ± 2.6%; in [3] it was 2.7% ± 0.3%; in [4], 0.4% ± 0.1%; in [6] (PANC-1 cells, 1 h incubation at 37 °C, NTS1R-specific), 8.1% ± 2.8%. Besides, in [5], the specific cell binding is recorded as 10.1 ± 2.3%.

For the substance “[^99mTc]Tc–[N4–βAla^7,Dab^9,Tle]NT(7–13) [[^99mTc]Tc–DT6]”, the 50% inhibitory concentration (IC50) in series [7] was 0.08 ± 0.02 nM. Also, the specific cell binding in [5] was 1.0 ± 0.4%. For the same substance, the “NTS1R targeting of tumor lesions in patients” value in [8] is recorded as “poor NTS1R targeting of tumor lesions”. Also, the “stability in mice plasma, intact” value in series [9] is given as greater than 90%.

In the case of “[^99mTc]Tc–[N4–βAla^7,Dab^9]NT(7–13) [[^99mTc]Tc–DT5]”, in [10], the “renal values in mice” value was “high renal values”. Further, the specific cell uptake in [2] is given as 8.4% ± 0.8%.
